# Data as given in CN109260209A, “一种骨化三醇软胶囊及其制备方法” (CP Pharmaceutical Qingdao Co Ltd, priority 2018, dated 2019).
# What was measured:
# Assay type in all cases: in vivo, SD rat
# [1] = system: ovariectomized osteoporotic rats (去卵巢骨质疏松大鼠); test: Bone mineral density (total and trabecular) in ovariectomized osteoporotic rats (Table 2); conditions: oral once daily, 1 month; calcitriol 5 μg/kg, emodin 5 μg/kg, calcitriol + emodin 5 μg/kg; right tibia
# [2] = system: ovariectomized osteoporotic rats (去卵巢骨质疏松大鼠); test: Bone mineral content (total and trabecular) in ovariectomized osteoporotic rats (Table 3); conditions: oral once daily, 1 month; calcitriol 5 μg/kg, emodin 5 μg/kg, calcitriol + emodin 5 μg/kg; right tibia
# [3] = system: ovariectomized osteoporotic rats (去卵巢骨质疏松大鼠); test: Serum calcitonin in ovariectomized osteoporotic rats, radioimmunoassay (Table 4)
# [4] = system: ovariectomized osteoporotic rats (去卵巢骨质疏松大鼠); test: Osteocalcin in ovariectomized osteoporotic rats, radioimmunoassay (Table 5)
# [5] = system: ovariectomized osteoporotic rats (去卵巢骨质疏松大鼠); test: Serum estradiol in ovariectomized osteoporotic rats, radioimmunoassay (Table 6)
# [6] = system: ovariectomized osteoporotic rats (去卵巢骨质疏松大鼠); test: Serum calcium in ovariectomized osteoporotic rats (Table 7); conditions: for serum calcium content (result in words): compared with negative control group
# [7] = system: ovariectomized osteoporotic rats (去卵巢骨质疏松大鼠); test: Serum phosphorus in ovariectomized osteoporotic rats (Table 8); conditions: for serum phosphorus content (result in words): compared with negative control group
# [8] = system: ovariectomized osteoporotic rats (去卵巢骨质疏松大鼠); test: Serum alkaline phosphatase in ovariectomized osteoporotic rats (Table 9); conditions: three months after surgery, compared with negative control group
# [9] = system: ovariectomized osteoporotic rats (去卵巢骨质疏松大鼠); test: Uterine wet weight in ovariectomized osteoporotic rats (Table 10); conditions: three months after surgery; for uterine wet weight (result in words): compared with negative control group; for uterine wet weight: oral once daily, 1 month, nilestriol 1 mg/kg, calcitriol 5 μg/kg, emodin 5 μg/kg, calcitriol + emodin 5 μg/kg
# [10] = three months after surgery, oral once daily, 1 month, nilestriol 1 mg/kg, calcitriol 5 μg/kg, emodin 5 μg/kg, calcitriol + emodin 5 μg/kg
Structure (SMILES),bone mineral density (result in words) [1],bone mineral content (result in words) [2],serum calcitonin content ([3]; before surgery (baseline)) [ng/L],serum calcitonin content (result in words) ([3]; three months after surgery),"serum calcitonin content [3, 10] [ng/L]",osteocalcin content ([4]; before surgery (baseline)) [ng/L],osteocalcin content (result in words) ([4]; three months after surgery),"osteocalcin content [4, 10] [ng/L]",serum estradiol content ([5]; before surgery (baseline)) [pg/mL],serum estradiol content (result in words) ([5]; three months after surgery),"serum estradiol content [5, 10] [pg/mL]",calcium content ([6]; before surgery (baseline)) [mmol/L],serum calcium content (result in words) ([6]; three months after surgery),"calcium content [6, 10] [mmol/L]",phosphorus content ([7]; before surgery (baseline)) [mmol/L],serum phosphorus content (result in words) ([7]; three months after surgery),"phosphorus content [7, 10] [mmol/L]",serum alkaline phosphatase content (result in words) [8],uterine wet weight (result in words) [9],uterine wet weight [9] [mg]
"Cc1cc(O)c2c(c1)C(=O)c1cc(O)cc(O)c1C2=O [大黄素组, 大黄素]",产生一定的增强骨密度的作用,产生一定的提高骨含量的作用,222.43 ± 19.43,血清降钙素含量上升,265.24 ± 22.43,3.09 ± 1.21,骨钙素含量上升,3.38 ± 0.98,12.87 ± 2.01,血清雌二醇含量上升,14.67 ± 1.76,4.21 ± 0.24,血清钙和磷含量与阴性对照组相比上升,4.21 ± 0.56,1.58 ± 0.43,血清钙和磷含量与阴性对照组相比上升,1.73 ± 0.65,与阴性对照组相比也出现下降,子宫湿重明显高于阴性对照组,89.34 ± 19.32
"C#C[C@]1(O)[C@H](O)C[C@H]2[C@@H]3CCc4cc(OC5CCCC5)ccc4[C@H]3CC[C@@]21C [阳性对照组, 尼尔雌醇]",–,–,231.35 ± 20.11,–,459.34 ± 11.43,2.98 ± 0.89,–,4.12 ± 1.32,12.65 ± 2.21,–,20.43 ± 1.54,4.19 ± 0.43,血清钙和磷含量与阴性对照组相比上升,4.65 ± 0.12,1.55 ± 0.45,血清钙和磷含量与阴性对照组相比上升,1.87 ± 0.46,与阴性对照组相比出现下降,子宫湿重明显高于阴性对照组,118.43 ± 12.43
"C=C1/C(=C\C=C2/CCC[C@]3(C)[C@@H]([C@H](C)CCCC(C)(C)O)CC[C@@H]23)C[C@@H](O)C[C@@H]1O [骨化三醇组, 9,10-开环胆甾-5Z,7E,10(19)-三烯-1α,3β,25-三醇]",产生一定的增强骨密度的作用,产生一定的提高骨含量的作用,241.23 ± 11.43,血清降钙素含量上升,321.34 ± 13.43,3.22 ± 1.22,骨钙素含量上升,3.45 ± 1.21,13.21 ± 1.56,血清雌二醇含量上升,15.34 ± 1.53,4.10 ± 0.54,血清钙和磷含量与阴性对照组相比上升,4.24 ± 0.41,1.61 ± 0.38,血清钙和磷含量与阴性对照组相比上升,1.71 ± 0.53,与阴性对照组相比也出现下降,子宫湿重明显高于阴性对照组,90.43 ± 10.43
